Experimental data: patent publication US20110295343A1, “NEAR-INFRARED ELECTROMAGNETIC MODIFICATION OF CELLULAR STEADY-STATE MEMBRANE POTENTIALS” (priority 2008, published 2011)

System: MRSA
Assay: CFU counts of MRSA plated on agar with antibiotic after sub-lethal NIMELS laser (Examples IX-XII)
Assay type: cell-based, Staphylococcus aureus
Details: antibiotic at resistant MIC just below effectiveness level

SMILES: COc1cccc(OC)c1C(=O)N[C@@H]1C(=O)N2[C@@H]1SC(C)(C)[C@@H]2C(=O)O [Methicillin]
- effect of sub-lethal NIMELS irradiation on antibiotic action against MRSA colonies (words): successful reversal of MRSA resistance
- effect of sub-lethal NIMELS irradiation on antibiotic action against MRSA colonies (words) (listed as methicillin): being potentiated by the NIMELS effect
